Calls of active or inactive are those of the source. No cut-off for these calls is given here.
How the values were obtained:
MDA-MB-453 = assay: Antiproliferative activity against human MDA-MB-453 cells assessed as inhibition of cell proliferation incubated for 72 hrs by MTT assay; assay type: functional, cell-based; conditions: MDA-MB-453, 72 h
Focal adhesion kinase 1 = Focal adhesion kinase 1 (Homo sapiens, UniProt Q05397); assay: Inhibition of FAK (unknown origin)
MDA-MB-231 [1] = assay: Antiproliferative activity against human MDA-MB-231 cells assessed as inhibition of cell proliferation incubated for 72 hrs by MTT assay; assay type: functional, cell-based; conditions: MDA-MB-231, 72 h
MDA-MB-231 [2] = assay: Antiproliferative activity against human MDA-MB-231 cells assessed as inhibition of cell proliferation at 5 uM incubated for 72 hrs by MTT assay relative to control; assay type: functional
MDA-MB-157 = assay: Antiproliferative activity against human MDA-MB-157 cells assessed as inhibition of cell proliferation incubated for 72 hrs by MTT assay; assay type: functional, cell-based; conditions: MDA-MB-157, 72 h
MDA-MB-231 [3] = assay: Induction of NO production in human MDA-MB-231 cells at 4 uM incubated for 72 hrs by DAF-FM-DA dye based flow cytometry analysis; assay type: functional, cell-based
MDA-MB-231 [4] = assay: Induction of apoptosis in human MDA-MB-231 cells assessed as late apoptotic cells at 4 uM incubated for 72 hrs by Annexin V-FITC/PI staining based flow cytometry analysis (reference value: 0.11%); assay type: functional
MDA-MB-231 [5] = assay: Induction of apoptosis in human MDA-MB-231 cells assessed as dead cells at 4 uM incubated for 72 hrs by Annexin V-FITC/PI staining based flow cytometry analysis (reference value: 0.23%); assay type: functional
[6] = Cytotoxicity against human MCF-10A cells assessed as inhibition of cell proliferation incubated for 72 hrs by MTT assay; assay type: toxicity, cell-based
MDA-MB-231 [7] = assay: Induction of apoptosis in human MDA-MB-231 cells assessed as live cells at 4 uM incubated for 72 hrs by Annexin V-FITC/PI staining based flow cytometry analysis (reference value: 97.51%); assay type: functional
MDA-MB-231 [8] = assay: Induction of apoptosis in human MDA-MB-231 cells assessed as early apoptotic cells at 4 uM incubated for 72 hrs by Annexin V-FITC/PI staining based flow cytometry analysis (reference value: 2.16%); assay type: functional

Sequence of Focal adhesion kinase 1 (Q05397 whole entry): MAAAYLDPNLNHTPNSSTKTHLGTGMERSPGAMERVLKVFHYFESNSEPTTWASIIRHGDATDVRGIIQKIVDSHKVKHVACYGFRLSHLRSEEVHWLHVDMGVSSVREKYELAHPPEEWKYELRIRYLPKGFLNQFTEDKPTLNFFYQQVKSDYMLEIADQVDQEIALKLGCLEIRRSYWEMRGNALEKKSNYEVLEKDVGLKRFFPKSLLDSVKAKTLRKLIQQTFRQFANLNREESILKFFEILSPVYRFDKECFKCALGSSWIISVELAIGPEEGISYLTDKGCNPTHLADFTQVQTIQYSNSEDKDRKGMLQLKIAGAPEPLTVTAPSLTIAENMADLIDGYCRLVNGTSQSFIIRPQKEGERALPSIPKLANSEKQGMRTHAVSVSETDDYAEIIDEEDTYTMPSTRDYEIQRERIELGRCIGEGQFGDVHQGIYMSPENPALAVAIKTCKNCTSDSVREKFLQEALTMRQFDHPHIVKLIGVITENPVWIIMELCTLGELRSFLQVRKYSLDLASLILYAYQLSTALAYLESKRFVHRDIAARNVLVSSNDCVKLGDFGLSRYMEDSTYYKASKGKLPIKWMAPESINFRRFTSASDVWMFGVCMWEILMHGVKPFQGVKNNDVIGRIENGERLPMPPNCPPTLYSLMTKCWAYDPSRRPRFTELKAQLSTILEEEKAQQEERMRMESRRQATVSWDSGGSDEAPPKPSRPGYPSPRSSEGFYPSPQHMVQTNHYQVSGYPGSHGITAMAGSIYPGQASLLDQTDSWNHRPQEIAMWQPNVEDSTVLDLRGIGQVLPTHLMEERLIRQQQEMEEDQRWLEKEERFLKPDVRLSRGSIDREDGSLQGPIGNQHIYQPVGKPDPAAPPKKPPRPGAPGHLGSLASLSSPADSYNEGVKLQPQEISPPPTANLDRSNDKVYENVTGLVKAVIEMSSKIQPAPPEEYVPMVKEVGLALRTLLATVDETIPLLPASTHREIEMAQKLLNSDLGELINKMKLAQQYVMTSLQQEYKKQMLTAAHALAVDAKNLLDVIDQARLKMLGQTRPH

Q: Which IC50 (MDA-MB-453) does the source give for CNC(=O)c1ccccc1Nc1nc(Nc2ccc(CC(=O)OCCCCCCCOc3no[n+]([O-])c3S(=O)(=O)c3ccccc3)cc2)ncc1Cl here?
A: The IC50 was 246 nM.

Q: What about the IC50 (Focal adhesion kinase 1) of the same compound?
A: Its IC50 is 31.4 nM.

Q: And the IC50 (MDA-MB-231 [1])?
A: Its IC50 is 129 nM.

Q: And the inhibition at 5 µM (MDA-MB-231 [2])?
A: The inhibition at 5 µM was greater than 92%.

Q: What about the IC50 (MDA-MB-157) of the same compound?
A: Its IC50 is 188 nM.

Q: And the Activity (MDA-MB-231 [3])?
A: The Activity was “Active”.

Q: With CNC(=O)c1ccccc1Nc1nc(Nc2ccc(N3CCOCC3)cc2OC)ncc1Cl as the compound, how does the Activity (MDA-MB-231 [4]) read?
A: Its Activity is 1.31%.

Q: And the IC50 (MDA-MB-453)?
A: Its IC50 is 1220 nM.

Q: What about the Activity (MDA-MB-231 [5]) of the same compound?
A: Its Activity is 0.11%.

Q: And the IC50 at 72 h [6]?
A: The IC50 at 72 h was 6470 nM.

Q: What about the Activity (MDA-MB-231 [7]) of the same compound?
A: The Activity was 57.79%.

Q: What about the Activity (MDA-MB-231 [8]) of the same compound?
A: Its Activity is 40.78%.

Q: And the IC50 (MDA-MB-231 [1])?
A: The IC50 was 1170 nM.

Q: And the IC50 (MDA-MB-157)?
A: The IC50 was 912 nM.
